Reference: patent US20160237502A1, “MARKERS FOR LIPID METABOLISM” (priority 2014, published 2016)
“Also recorded” adds a separate entry of the source.

What was measured:
alh-6 mutant worms = experiment: Fat content during fasting measured by Nile Red staining; type: in vivo, C. elegans; conditions: NAC-treated alh-6 mutant worms
Method: For starvation, synchronized L1 animals were added to nematode growth medium (NGM) plates seeded with indicated bacteria. After 2 days at 20° C., L4 animals were collected, washed with M9 buffer at least three times and then subjected to fasting in M9 liquid with shaking for indicated time before collection for further analysis. Starvation survival assay was performed as previous described (Artyukhin et al., Sci. Rep.; 3, 2777; 2013). […] After 24 h, synchronized L1 animals were resuspended in M9 at a concentration of two worms per microliter. Starvation culture was mixed by constant rocking. Every 2 days, a portion of animals was recovered on normal OP50-seeded NGM plates. Animals that resumed development were considered to be surviving.
Nile Red staining was performed as previously described (Pino, et al., J. Vis. Exp. 73; 2013). Briefly, animals of indicated genotypes were collected, fixed in 40% isopropanol at room temperature for 3 min and stained in 3 μg ml-1 Nile Red working solution in dark for 2 h. Worms were then washed with M9 for at least 30 min, mounted on slides and imaged under the green fluorescent protein channel of microscope Zeiss Axio Imager with Zen software package. Fluorescent density was measured using ImageJ software. Approximately ten animals from each experiment (n) were used to calculate the fluorescent density.

SKN-1 = SKN-1 transcriptional activity reporter gst-4p::GFP activation in worms; type: in vivo, C. elegans
alh-6 mutants = conditions: NAC treatment, previous study; cited from earlier work

Compound	fat mobilization in response to fasting (alh-6 mutant worms)	SKN-1 reporter activation induced by exposure to arsenite (SKN-1; gst-4p::GFP reporter, arsenite as inducer of oxidative stress, NAC treatment)	SKN-1 activation observed in fasted alh-6 mutants (SKN-1; gst-4p::GFP reporter, fasted alh-6 mutants, NAC treatment)	shortened lifespan of alh-6 mutants (alh-6 mutants)	SKN-1 reporter activation (SKN-1; in vivo)
CC(=O)N[C@@H](CS)C(=O)O [NAC, N-acetylcysteine]	still exhibited accelerated fat mobilization	blocked the SKN-1 reporter activation; also recorded: inhibits arsenite (AS) induced SKN-1 reporter activation	no effect; also recorded: not activation when alh-6 mutants are fasted	completely abrogated the shortened lifespan	
arsenite					SKN-1 reporter activation induced
